Molecular target: T1, PARS (Mus musculus, UniProt P11103)
T1 construct: endogenous in cells; host or cells: Raw murine macrophages
Assay: Cell protection assay: PARS activity in peroxynitrite-treated Raw murine macrophages
Type: cell-based
Settings: compound 15 min before peroxynitrite (750 μM) for 15 min, PARS activity by 3H-NAD incorporation, EC50 from dose-response curve
Method: Raw murine macrophages were treated with an illustrative Tetracyclic Amino Compound or Tetracyclic Carboxamido Compound for 15 minutes prior to the addition of peroxynitrite (750 μM) for a further 15 minutes. For the measurement of PARS activity, the media were removed and replaced with 0.5 ml HEPES (pH 7.5) containing 0.01% digitonin and ^3H-NAD (0.5 μCi ml^−1, final concentration of NAD^+ in buffer is 20 nM/L) for 20 minutes. The cells were then scraped from the wells and placed in Eppendorf tubes containing 200 μl of 50% (w/v) ice-cold trichloroacetic acid (TCA). The tubes were then placed at 4° C. After 4 hr the tubes were centrifuged at 1800 g for 10 minutes and the supernatant removed. The pellets were washed twice with 500 μl ice-cold 5% TCA. The pellets were solubilized in 250 μl NaOH (0.1 M) containing 2% SDS overnight at 37° C. and the PARS activity was then determined by measuring the radioactivity incorporated using a Wallac scintillation counter. The solubilized protein (250 μl) was mixed with 5 ml of scintillant (ScintiSafe Plus, Fisher Scientific) before being counted for 10 minutes. The EC50 value was calculated from a dose-response curve.

T1 sequence (P11103 whole entry): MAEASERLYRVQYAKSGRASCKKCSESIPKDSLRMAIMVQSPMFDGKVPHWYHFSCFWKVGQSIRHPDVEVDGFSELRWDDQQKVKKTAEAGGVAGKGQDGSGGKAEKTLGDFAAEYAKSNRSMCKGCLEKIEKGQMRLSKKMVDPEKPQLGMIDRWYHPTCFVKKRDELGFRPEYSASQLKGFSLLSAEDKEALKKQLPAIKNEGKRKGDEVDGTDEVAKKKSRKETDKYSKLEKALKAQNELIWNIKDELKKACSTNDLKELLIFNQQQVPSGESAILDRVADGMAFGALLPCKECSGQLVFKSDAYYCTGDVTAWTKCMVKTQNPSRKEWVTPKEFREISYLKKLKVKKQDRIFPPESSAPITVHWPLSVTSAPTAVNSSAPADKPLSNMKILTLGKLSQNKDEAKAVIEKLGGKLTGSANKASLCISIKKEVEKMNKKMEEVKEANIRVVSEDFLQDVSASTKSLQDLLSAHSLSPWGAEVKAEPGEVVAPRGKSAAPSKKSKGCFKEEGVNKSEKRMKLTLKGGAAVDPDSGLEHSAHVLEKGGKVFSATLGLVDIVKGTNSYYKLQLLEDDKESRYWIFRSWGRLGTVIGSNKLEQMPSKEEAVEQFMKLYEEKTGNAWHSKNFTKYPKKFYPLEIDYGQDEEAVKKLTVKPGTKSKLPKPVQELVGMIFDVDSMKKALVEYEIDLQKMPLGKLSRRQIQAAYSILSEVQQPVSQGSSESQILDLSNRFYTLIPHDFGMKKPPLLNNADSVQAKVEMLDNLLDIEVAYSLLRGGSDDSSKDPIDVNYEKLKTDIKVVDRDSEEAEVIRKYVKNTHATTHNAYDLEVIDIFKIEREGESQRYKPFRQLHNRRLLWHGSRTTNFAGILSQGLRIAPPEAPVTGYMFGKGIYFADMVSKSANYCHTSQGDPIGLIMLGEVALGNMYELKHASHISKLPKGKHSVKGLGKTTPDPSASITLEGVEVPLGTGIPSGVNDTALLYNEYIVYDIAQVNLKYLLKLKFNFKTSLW

Q: Which EC50 does the source give for O=C(NCCCN1CCOCC1)c1ccc2c(c1)Cc1c-2[nH]c(=O)c2ccccc12 [Compound 14b] here?
A: Its EC50 is 1.1 µM.

Q: With CN(C)CCCNC(=O)c1ccc2c(c1)Cc1c-2[nH]c(=O)c2ccccc12 [Compound 13b] as the compound, how does the EC50 read?
A: Its EC50 is 0.9 µM.

Q: How did the EC50 turn out when CN(C)CCNC(=O)c1cccc2c1Cc1c-2[nH]c(=O)c2ccccc12 [Compound 15a] was run?
A: Its EC50 is greater than 1.5 µM.

Q: O=C(NCCCN1CCOCC1)c1cccc2c1Cc1c-2[nH]c(=O)c2ccccc12 [Compound 16b] was tested. Which EC50 did it give?
A: The EC50 was greater than 1.5 µM.

Q: O=C(NCCN1CCOCC1)c1cccc2c1Cc1c-2[nH]c(=O)c2ccccc12 [Compound 16a] was tested. Which EC50 did it give?
A: The EC50 was greater than 1.5 µM.

Q: For CN(C)CCCNC(=O)c1cccc2c1Cc1c-2[nH]c(=O)c2ccccc12 [Compound 15b], which EC50 is on record?
A: The EC50 was greater than 1.5 µM.

Q: Which EC50 does the source give for O=C(NCCN1CCOCC1)c1ccc2c(c1)Cc1c-2[nH]c(=O)c2ccccc12 [Compound 14a] here?
A: The EC50 was 1.1 µM.

— patent US7381722B2, “Tetracyclic amino and carboxamido compounds and methods of use thereof” (Inotek Pharmaceuticals Corporation, priority 2005, dated 2008)
